Measurements published in patent US20210163453A1, “DERIVATIVES OF PAPAVERINE THAT ARE EFFECTIVE HYPOXIC TUMOR RADIOSENSITIZERS” (Ohio State Innovation Foundation, priority 2018, published 2021).
“Also recorded” adds a separate entry of the source.

How the values were obtained:
[1] = system: EO771 or A549 flank tumors; experiment: FD-NIRS tissue oxygenation in tumor-bearing mice; format: in vivo
Protocol: In vivo oxygenation measurements. All animal experiments were performed according to protocols approved by institutional IACUC review, with daily veterinarian observation. 2×10^6 EO771 or 5×10^6 A549 cells were injected s.c. into the flanks of 6-week old female immunocompromised nu/nu mice. Caliper measurements of opposing diameters were used to calculate the tumor volumes. Upon reaching […], the animals were anesthetized by inhalation of 1.5% isoflurane and tumor and thigh muscle oxygenation was measured with NIRS optical probe for 30 minutes. Once the baseline oxygenation was established, the animals were injected with either 2 mg per kg of body weight of papaverine hydrochloride or saline by tail vein. Tissue oxygenation was measured for 120 minutes. Obtained oxygenation values were normalized to time of injection and average of 5 traces per treatment averaged. Error bars represent the standard deviation.
Frequency-domain near-infrared spectroscopy (FD-NIRS) can noninvasively quantify tissue hemoglobin concentration (THb) and oxygenation (SO2) in real time. This technology uses light in the 700-800 nm wavelength because it has reasonably good tissue penetration (nominally 1-2 cm in depth). A FD-NIRS system with a novel side firing probe to measure changes in tumor oxygenation in response to pharmacological intervention was developed and used in this example. This example has generated in vivo data showing that papaverine can increase oxygenation in xenografted tumors in mice.
The FD-NIRS instrument consists of a network analyzer as the radio frequency (RF) source and phase-sensitive detection system, a 1×4 RF switch, a 4×2 optical switch, a multi-channel laser diode controller, four laser diodes (654, 779, 805 and 847 nm) installed in mounts with a bias-T, an avalanche photodiode (APD) module, and a laptop computer loaded with custom software. The surface probe consists of two side-firing source fibers (200/220/240 µm, NA=0.22) and a single side-firing detection fiber (600/660/710 µm, NA=0.22), providing two source-detector separations (SDSs) of 5 and 10 mm, respectively. The fiber tips are polished to a […] and coated with a mirror to create a light path perpendicular to the fiber. All the fiber tips are epoxied into a V-groove on a thin Delrin plate (biocompatible) so that it can be easily attached to the skin surface above a tumor. The two SDSs allow elimination of artifacts due to instrument response and the skin effects, while providing a penetration depth around 10-15 mm in typical tissue.
The FD-NIRS instrument launches intensity-modulated continuous wave lasers into the tissue and collects the amplitude-attenuated and phase-shifted diffuse reflectance from the tissue at the same frequency of the incident light, both through the side-firing probe. […]

[2] = system: A549 NDUFV1 KO NDI1 cells; format: cell-based, Human; conditions: 10 μM papaverine or 1 μM rotenone
[3] = cited from earlier work
[4] = system: A549 cells; experiment: In vitro radiation survival (colony formation) of A549 cells; format: cell-based, Human
Protocol: FIGS. 4A-4G show tumor growth before and after radiosensitization with PPV. FIG. 4A-4B show in vitro radiation survival assessment of A549 cell line treated with […] PPV in normoxia (FIG. 4A) and anoxia (FIG. 4B). Normoxic cells were irradiated in triplicates on a cell culture dish, anoxic cells were irradiated in high density suspension after sealing with mineral oil 45 minutes before radiation. Values represent averaged colony counts+−standard deviation. FIG. 4C show quantification of tumor growth delay in orthotopic EO771 tumors gown in C57B16 mice receiving either 5 Gy XRT (magenta) or 2 mg/kg PPV 35 minutes prior to 5 Gy XRT (blue) (n=3-4). Values are mean tumor volumes+−SEM. […] Values are mean tumor volumes+−SEM. FIG. 4E-4F show tumor growth delay. When tumors reached 4-fold volume increase, groups receiving no treatment or PPV only (FIG. 4E); and XRT only or PPV followed by XRT (FIG. 4F), tumor weights were compared. Values are mean tumor weights+−SEM (n=8). P values were calculated with two-tailed two-sample t test. FIG. 4G are related to FIG. 4E-4F tumor growth delay.
A549 cells in suspension were treated with 5 μM PPV for one hour prior to radiation and plating in fresh media for colony formation post radiation. (N=2 experiments performed in triplicate). […]

[5] = Cellular toxicity of PPV derivatives by trypan blue; format: cell-based; conditions: 10 uM, 72 h
Protocol: FIGS. 7A-7D show OCR and cellular toxicity data. […]. Bars represent mean OCR and PDE10 inhibitory activities from at least 5 (OCR) or 3 (PDE) replicates. All experiments were repeated at least twice. […] Values are mean+−SEM.
Experimental: Cell lines. All cell lines were purchased from the American Type Culture Collection (ATCC) and grown DMEM (Corning) supplemented with 10% FBS (Seradigm) and 1% Penicillin/Streptomycin (Fisher Bioreagents) at 37° C. in 5% CO2. Cells were treated with inhibitors papaverine hydrochloride (Sigma-Aldrich), rotenone (Sigma-Aldrich), piericidin A (Santa Cruz), capsaicin (Sigma-Aldrich), antimycin A (Sigma-Aldrich) and succinic acid disodium salt (Sigma-Aldrich). Cell viability was assessed by trypan blue exclusion.

Row | SMILES | tumor oxygenation ([1]; 2 mg/kg by tail vein, within first 30-45 minutes) | oxygenation of normal thigh muscle ([1]; 2 mg/kg i.v.) | maximum tumor oxygenation above baseline ([1]; 2 mg/kg i.v., 30 min post injection) | oxygenation of normal thigh muscle ([1]; 2 mg/kg i.v., listed as papaverine) | response of mitochondria (OCR) to drug [2] | expected half-life ([3]; Ritschel et al.) | half-life, cleared from the serum ([3]; in vivo) | colony survival after radiation ([4]; 5 μM papaverine for one hour prior to radiation) | surviving fraction of irradiated cells ([4]; 10 μM PPV, normoxia and anoxia) | cellular toxicity in vitro [5]
1 | COc1ccc(Cc2nccc3cc(OC)c(OC)cc23)cc1OC [PPV, papaverine] | significantly increased the oxygenation; also recorded: statistically significant | no significant change | 1.35-1.45 × above baseline | no change was detected | resistant | 1.5 to 2 h | 1.5 to 2 h | did not have any effect on colony survival; also recorded: not an inherent radiosensitizer | did not change the surviving fraction | 
2 | COc1cc2ccnc(Cc3cccc4ccccc34)c2cc1OC [SMV-32] |  |  |  |  |  |  |  |  |  | Neither of these compounds shows cellular toxicity
